# Results as given in US20230310428A1, “EGFR INHIBITOR AND PREPARATION METHOD AND USE THEREOF” (HONGYUN BIOTECH CO., LTD., priority 2020, published 2023).
# pIC50: −log10 of the molar value. Read-outs that look alike come from different tables or passages of the source.
# Columns and labels:
# Assay in all cases: Growth inhibitory activity of compounds on BaF3 cell lines stably transfected with kinase (MTS, 48 h)
# Type in all cases: cell-based
# [1] = target: T1, various mutants of kinase EGFR (BaF3 cell lines stably transfected with kinase) (Homo sapiens, UniProt P00533, T790M, form not given)
# T1 construct: other: BaF3 cells stably transfected with EGFR Δ19Del/T790M; MTS, 48 h; other: BaF3 cell line stably transfected with EGFR Δ19Del/T790M; MTS, 48
# Method in brief: (§1)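 OD at 490 nm after 1-4 h MTS/PES incubation gave growth inhibition relative to 0.1% DMSO negative and cell-free medium blank. Compounds: 8-point 1/3 dilution from 10 µM, 48 h, 37 °C. IC50 from inhibition curves; duplicates.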
# [2] = target: T2, various mutants of kinase EGFR (BaF3 cell lines stably transfected with kinase) (Homo sapiens, UniProt P00533)
# T2 construct: other: BaF3 cells stably transfected with EGFR Δ19Del; MTS, 48 h; other: BaF3 cell line stably transfected with EGFR Δ19Del
# T2 sequence (P00533 with tags, fused parts or gaps DEL746-750): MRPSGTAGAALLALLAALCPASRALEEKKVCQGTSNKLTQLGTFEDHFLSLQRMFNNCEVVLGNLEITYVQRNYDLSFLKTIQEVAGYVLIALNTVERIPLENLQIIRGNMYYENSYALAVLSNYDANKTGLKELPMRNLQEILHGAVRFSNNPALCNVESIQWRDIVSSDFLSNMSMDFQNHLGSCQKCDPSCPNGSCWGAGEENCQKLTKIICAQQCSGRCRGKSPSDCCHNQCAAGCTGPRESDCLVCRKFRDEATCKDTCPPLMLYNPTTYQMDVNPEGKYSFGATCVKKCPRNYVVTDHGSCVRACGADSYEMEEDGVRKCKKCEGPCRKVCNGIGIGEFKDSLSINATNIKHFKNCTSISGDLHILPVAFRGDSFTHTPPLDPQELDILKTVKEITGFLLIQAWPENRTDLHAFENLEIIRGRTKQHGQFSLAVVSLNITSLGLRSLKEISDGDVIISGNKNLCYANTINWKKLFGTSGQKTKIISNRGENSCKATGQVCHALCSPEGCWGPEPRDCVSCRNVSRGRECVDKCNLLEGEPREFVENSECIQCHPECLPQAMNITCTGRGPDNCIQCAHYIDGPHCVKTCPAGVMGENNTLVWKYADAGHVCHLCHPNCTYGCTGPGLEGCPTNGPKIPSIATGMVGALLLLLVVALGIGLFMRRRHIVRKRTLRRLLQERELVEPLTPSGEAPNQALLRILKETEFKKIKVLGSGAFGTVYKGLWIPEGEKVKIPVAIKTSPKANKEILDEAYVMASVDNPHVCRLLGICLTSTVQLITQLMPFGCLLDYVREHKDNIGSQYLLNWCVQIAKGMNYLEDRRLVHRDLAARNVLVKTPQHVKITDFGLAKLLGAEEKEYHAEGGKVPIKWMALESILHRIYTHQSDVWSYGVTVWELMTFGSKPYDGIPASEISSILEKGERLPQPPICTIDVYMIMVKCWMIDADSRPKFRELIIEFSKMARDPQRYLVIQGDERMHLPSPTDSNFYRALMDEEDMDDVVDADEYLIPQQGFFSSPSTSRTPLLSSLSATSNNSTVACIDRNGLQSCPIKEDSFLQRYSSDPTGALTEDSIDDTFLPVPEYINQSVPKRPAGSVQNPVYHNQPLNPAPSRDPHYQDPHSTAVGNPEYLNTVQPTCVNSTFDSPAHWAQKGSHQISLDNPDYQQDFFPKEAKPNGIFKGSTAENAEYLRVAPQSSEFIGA
# Method in brief: as §1
# [3] = target: T3, various mutants of kinase EGFR (BaF3 cell lines stably transfected with kinase) (Homo sapiens, UniProt P00533, L858R/T790M)
# T3 construct: expressed in transfected cells; host or cells: BaF3
# T3 sequence (P00533 25-1210 T790M/L858R): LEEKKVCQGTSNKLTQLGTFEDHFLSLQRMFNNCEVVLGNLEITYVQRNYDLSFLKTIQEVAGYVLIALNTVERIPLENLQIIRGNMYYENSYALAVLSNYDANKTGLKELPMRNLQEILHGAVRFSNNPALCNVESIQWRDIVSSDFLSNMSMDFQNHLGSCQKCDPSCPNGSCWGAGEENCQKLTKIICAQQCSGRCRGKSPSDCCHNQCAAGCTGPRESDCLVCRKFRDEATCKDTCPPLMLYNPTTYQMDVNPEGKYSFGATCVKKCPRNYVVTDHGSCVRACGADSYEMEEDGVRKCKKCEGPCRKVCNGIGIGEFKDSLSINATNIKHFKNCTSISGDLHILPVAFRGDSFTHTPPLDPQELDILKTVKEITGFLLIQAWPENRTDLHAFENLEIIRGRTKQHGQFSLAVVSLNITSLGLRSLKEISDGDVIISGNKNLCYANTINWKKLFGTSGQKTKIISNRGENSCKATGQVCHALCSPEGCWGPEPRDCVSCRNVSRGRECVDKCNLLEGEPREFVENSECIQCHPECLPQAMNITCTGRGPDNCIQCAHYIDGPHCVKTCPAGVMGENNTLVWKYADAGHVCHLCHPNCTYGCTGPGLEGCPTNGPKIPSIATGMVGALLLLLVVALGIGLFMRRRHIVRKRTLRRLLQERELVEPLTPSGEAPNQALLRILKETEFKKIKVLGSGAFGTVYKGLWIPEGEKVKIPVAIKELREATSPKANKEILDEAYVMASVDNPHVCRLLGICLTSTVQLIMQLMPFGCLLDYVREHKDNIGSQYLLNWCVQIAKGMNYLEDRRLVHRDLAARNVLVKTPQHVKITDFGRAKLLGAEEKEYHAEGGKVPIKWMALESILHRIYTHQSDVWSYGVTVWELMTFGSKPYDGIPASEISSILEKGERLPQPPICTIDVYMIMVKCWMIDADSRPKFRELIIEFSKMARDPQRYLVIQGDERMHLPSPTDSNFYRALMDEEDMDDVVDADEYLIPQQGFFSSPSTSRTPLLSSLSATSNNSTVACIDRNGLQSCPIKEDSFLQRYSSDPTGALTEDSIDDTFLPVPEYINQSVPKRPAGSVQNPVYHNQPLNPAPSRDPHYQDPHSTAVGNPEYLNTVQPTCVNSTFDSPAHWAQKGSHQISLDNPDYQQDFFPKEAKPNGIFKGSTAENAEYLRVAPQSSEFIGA
# Method in brief: as §1
# [4] = target: T4, various mutants of kinase EGFR (BaF3 cell lines stably transfected with kinase) (Homo sapiens, UniProt P00533, C797S/L858R/T790M)
# T4 construct: expressed in transfected cells; host or cells: BaF3
# T4 sequence (P00533 25-1210 T790M/C797S/L858R): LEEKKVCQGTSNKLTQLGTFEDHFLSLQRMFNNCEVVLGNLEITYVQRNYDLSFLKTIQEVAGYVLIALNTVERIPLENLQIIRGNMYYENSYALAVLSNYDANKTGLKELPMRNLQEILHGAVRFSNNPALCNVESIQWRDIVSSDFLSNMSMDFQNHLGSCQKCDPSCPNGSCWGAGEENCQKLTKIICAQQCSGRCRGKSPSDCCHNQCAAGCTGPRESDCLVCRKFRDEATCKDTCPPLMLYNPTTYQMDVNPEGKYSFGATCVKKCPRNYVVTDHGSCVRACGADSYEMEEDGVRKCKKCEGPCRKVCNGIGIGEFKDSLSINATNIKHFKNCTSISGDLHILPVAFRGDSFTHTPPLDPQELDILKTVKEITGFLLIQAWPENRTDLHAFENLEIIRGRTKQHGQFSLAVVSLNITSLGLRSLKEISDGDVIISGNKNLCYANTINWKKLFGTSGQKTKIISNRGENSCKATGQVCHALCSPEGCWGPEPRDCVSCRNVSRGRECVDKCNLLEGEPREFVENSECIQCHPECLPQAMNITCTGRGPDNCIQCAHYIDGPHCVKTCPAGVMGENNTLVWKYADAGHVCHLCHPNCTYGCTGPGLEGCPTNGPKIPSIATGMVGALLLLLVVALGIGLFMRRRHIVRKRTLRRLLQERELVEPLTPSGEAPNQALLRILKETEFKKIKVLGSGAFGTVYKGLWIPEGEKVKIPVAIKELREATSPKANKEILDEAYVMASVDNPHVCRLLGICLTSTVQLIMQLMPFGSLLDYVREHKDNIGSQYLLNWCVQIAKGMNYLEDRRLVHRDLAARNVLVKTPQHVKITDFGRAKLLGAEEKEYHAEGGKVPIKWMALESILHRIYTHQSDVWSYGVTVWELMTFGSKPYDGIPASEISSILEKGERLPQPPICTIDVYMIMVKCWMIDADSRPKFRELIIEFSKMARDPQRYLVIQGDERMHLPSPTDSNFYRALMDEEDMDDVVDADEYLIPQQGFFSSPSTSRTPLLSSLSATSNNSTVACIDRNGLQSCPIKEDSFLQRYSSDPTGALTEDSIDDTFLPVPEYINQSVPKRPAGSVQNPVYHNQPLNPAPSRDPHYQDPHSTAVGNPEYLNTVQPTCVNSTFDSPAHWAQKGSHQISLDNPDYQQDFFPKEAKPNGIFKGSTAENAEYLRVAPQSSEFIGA
# Method in brief: as §1
# [5] = target: T5, various mutants of kinase EGFR (BaF3 cell lines stably transfected with kinase) (Homo sapiens, UniProt P00533, L858R)
# T5 construct: expressed in transfected cells; host or cells: BaF3
# T5 sequence (P00533 25-1210 L858R): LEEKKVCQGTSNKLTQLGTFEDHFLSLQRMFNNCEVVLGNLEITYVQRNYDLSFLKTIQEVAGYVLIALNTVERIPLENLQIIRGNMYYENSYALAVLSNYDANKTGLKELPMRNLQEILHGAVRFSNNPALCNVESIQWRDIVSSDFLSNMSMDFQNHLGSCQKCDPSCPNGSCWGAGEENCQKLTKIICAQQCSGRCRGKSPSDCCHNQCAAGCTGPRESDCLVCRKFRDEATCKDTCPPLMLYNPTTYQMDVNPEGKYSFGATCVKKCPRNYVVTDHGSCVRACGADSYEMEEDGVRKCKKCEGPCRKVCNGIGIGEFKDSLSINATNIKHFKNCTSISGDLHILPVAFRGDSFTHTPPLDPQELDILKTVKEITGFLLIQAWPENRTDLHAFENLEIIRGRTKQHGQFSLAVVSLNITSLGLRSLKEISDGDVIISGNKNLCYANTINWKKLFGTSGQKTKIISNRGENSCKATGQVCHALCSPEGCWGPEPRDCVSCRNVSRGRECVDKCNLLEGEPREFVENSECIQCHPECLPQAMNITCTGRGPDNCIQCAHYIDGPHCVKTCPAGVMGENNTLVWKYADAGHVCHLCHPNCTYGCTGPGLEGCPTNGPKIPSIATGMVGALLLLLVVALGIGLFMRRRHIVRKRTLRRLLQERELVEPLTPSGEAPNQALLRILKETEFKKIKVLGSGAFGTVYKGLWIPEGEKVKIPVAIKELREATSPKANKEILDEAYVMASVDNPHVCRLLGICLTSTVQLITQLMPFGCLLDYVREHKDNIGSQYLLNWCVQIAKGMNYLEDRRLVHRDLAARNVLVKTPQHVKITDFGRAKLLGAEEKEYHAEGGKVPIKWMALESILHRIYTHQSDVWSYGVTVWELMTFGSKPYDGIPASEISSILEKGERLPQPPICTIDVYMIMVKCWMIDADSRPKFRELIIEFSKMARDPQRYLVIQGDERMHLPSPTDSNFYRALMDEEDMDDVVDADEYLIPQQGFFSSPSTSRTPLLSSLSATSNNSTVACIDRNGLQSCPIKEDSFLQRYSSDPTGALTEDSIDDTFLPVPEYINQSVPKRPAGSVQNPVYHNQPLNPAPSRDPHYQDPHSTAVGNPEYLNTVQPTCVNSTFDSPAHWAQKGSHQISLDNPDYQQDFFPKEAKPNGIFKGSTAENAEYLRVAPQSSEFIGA
# Method in brief: as §1
# [6] = target: T6, various mutants of kinase EGFR (BaF3 cell lines stably transfected with kinase) (Homo sapiens, UniProt P00533, T790M/C797S, form not given)
# T6 construct: other: BaF3 cells stably transfected with EGFR Δ19Del/T790M/C797S; MTS, 48; other: BaF3 cell line stably transfected with EGFR Δ19Del/T790M/C7
# Method in brief: as §1
# [7] = BaF3 cell line stably transfected with EGFR Δ19Del/T790M, read-out: Δ19Del/ T790M growth inhibitory activity IC50
# [8] = BaF3 cell line stably transfected with EGFR Δ19Del, read-out: Δ19Del growth inhibitory activity IC50
# [9] = BaF3 cell line stably transfected with EGFR L858R/T790M, read-out: L858R/ T790M growth inhibitory activity IC50
# [10] = BaF3 cell line stably transfected with EGFR L858R/T790M/C797S, read-out: L858R/T790M/ C797S growth inhibitory activity IC50
# [11] = BaF3 cell line stably transfected with EGFR L858R, read-out: L858R growth inhibitory activity IC50
# [12] = BaF3 cell line stably transfected with EGFR Δ19Del/T790M/C797S, read-out: Δ19Del/T790M/ C797S growth inhibitory activity IC50
# [13] = BaF3 cells stably transfected with EGFR Δ19Del/T790M, read-out: IC50, growth inhibition, Δ19Del/T790M
# [14] = BaF3 cells stably transfected with EGFR Δ19Del, read-out: IC50, growth inhibition, Δ19Del
# [15] = BaF3 cells stably transfected with EGFR L858R/T790M, read-out: IC50, growth inhibition, L858R/T790M
# [16] = BaF3 cells stably transfected with EGFR L858R/T790M/C797S, read-out: IC50, growth inhibition, L858R/T790M/C797S
# [17] = BaF3 cells stably transfected with EGFR L858R, read-out: IC50, growth inhibition, L858R
# [18] = BaF3 cells stably transfected with EGFR Δ19Del/T790M/C797S, read-out: IC50, growth inhibition, Δ19Del/T790M/C797S
SMILES,"pIC50 [1, 7]","pIC50 [2, 8]","pIC50 [3, 9]","pIC50 [4, 10]","pIC50 [5, 11]","pIC50 [6, 12]","pIC50 [1, 13]","pIC50 [2, 14]","pIC50 [3, 15]","pIC50 [4, 16]","pIC50 [5, 17]","pIC50 [6, 18]"
CCc1cc(Nc2ncc(Br)c(Nc3ccc4nccnc4c3N(C3CC3)S(C)(=O)=O)n2)c(OC)cc1N1CCN(C)CC1 [Compound I-310],≥ 7.30,6.30 to 7.30,≥ 7.30,≥ 7.30,≥ 7.30,≥ 7.30,,,,,,
CCN(c1c(Nc2nc(Nc3cc(C)c(N4CCC(N(C)C)C4)cc3OC)ncc2Br)ccc2nccnc12)S(C)(=O)=O (stereo not drawn) [Compound I-302],,,,,,,≥ 7.30,6.30 to 7.30,≥ 7.30,≥ 7.30,6.30 to 7.30,6.30 to 7.30
CCc1cc(Nc2ncc(Br)c(Nc3ccc4nccnc4c3N(C)S(C)(=O)=O)n2)c(OC)cc1C(=O)N1CCC(N2CCN(C)CC2)CC1 [Compound I-355],6.30 to 7.30,6.30 to 7.30,6.30 to 7.30,6.30 to 7.30,6.30 to 7.30,≥ 7.30,,,,,,
CCc1cc(Nc2nc(Nc3ccc4nccnc4c3N(C)S(C)(=O)=O)c3ccsc3n2)c(OC(F)(F)F)cc1N1CCC(N2CCN(C)CC2)CC1 [II-2-4],5.60 to 6.30,5.60 to 6.30,5.60 to 6.30,5.60 to 6.30,5.60 to 6.30,5.60 to 6.30,,,,,,
CCc1cc(Nc2ncc(F)c(Nc3ccc4nccnc4c3N(C)S(C)(=O)=O)n2)c(OC)cc1N1CCC(N2CCN(C)CC2)CC1 [Compound I-26],,,,,,,≥ 7.30,≥ 7.30,≥ 7.30,≥ 7.30,≥ 7.30,≥ 7.30
CCc1cc(Nc2ncc(Br)c(Nc3ccc4nccnc4c3N(CC)S(C)(=O)=O)n2)c(OC)cc1N1CCN(C)CC1 [Compound I-301],,,,,,,≥ 7.30,6.30 to 7.30,≥ 7.30,≥ 7.30,≥ 7.30,≥ 7.30
CCc1cc(Nc2ncc(F)c(Nc3ccc4nccnc4c3N(C)S(C)(=O)=O)n2)c(OC(F)(F)F)cc1N1CCC(N2CCN(C)CC2)CC1 [Compound I-179],,,,,,,6.30 to 7.30,6.30 to 7.30,6.30 to 7.30,6.30 to 7.30,6.30 to 7.30,≥ 7.30
COc1ccc(N2CCC(O)CC2)cc1Nc1ncc(Br)c(Nc2ccc3nccnc3c2N(C)S(=O)(=O)C2CC2)n1 [Compound I-375],≥ 7.30,≥ 7.30,≥ 7.30,≥ 7.30,≥ 7.30,≥ 7.30,,,,,,
COc1cc(N2CCC(N3CCN(C)CC3)CC2)c(CC2CC2)cc1Nc1ncc(Cl)c(Nc2ccc3nccnc3c2N(C)S(=O)(=O)C(C)C)n1 [Compound I-254],,,,,,,≥ 7.30,6.30 to 7.30,6.30 to 7.30,6.30 to 7.30,6.30 to 7.30,6.30 to 7.30
CCc1cc(Nc2ncc(C(F)(F)F)c(Nc3ccc4nccnc4c3N(C)S(C)(=O)=O)n2)c(OC(F)(F)F)cc1N1CCC(N2CCN(C)CC2)CC1 [Compound I-201],,,,,,,6.30 to 7.30,6.30 to 7.30,6.30 to 7.30,6.30 to 7.30,6.30 to 7.30,≥ 7.30
CCc1cnc(Nc2cc(N3CCC(O)CC3)ccc2OC)nc1Nc1ccc2nccnc2c1N(C)S(C)(=O)=O [Compound I-363],6.30 to 7.30,≥ 7.30,≥ 7.30,≥ 7.30,≥ 7.30,≥ 7.30,,,,,,
COc1cc(N2CCC(N(C)C)C2)c(C)cc1Nc1nc(Nc2ccc3nccnc3c2N(C)S(C)(=O)=O)c2[nH]ccc2n1 (stereo not drawn) [II-1-35],5.60 to 6.30,5.60 to 6.30,5.60 to 6.30,5.60 to 6.30,5.60 to 6.30,5.60 to 6.30,,,,,,
CCOc1cc(N2CCN(C)CC2)ccc1Nc1ncc(Br)c(Nc2ccc3nccnc3c2N(C)S(C)(=O)=O)n1 [Compound I-39],,,,,,,6.30 to 7.30,5.60 to 6.30,6.30 to 7.30,≥ 7.30,5.60 to 6.30,≥ 7.30
CCc1cc(Nc2ncc(Br)c(Nc3ccc4nccnc4c3NS(C)(=O)=O)n2)c(OC)cc1N1CCC(N2CCN(C)CC2)CC1 [Compound I-403],≥ 7.30,≥ 7.30,≥ 7.30,≥ 7.30,≥ 7.30,≥ 7.30,,,,,,
CCc1cc(Nc2ncc(C)c(Nc3ccc4nccnc4c3N(C)S(C)(=O)=O)n2)c(OC)cc1N1CCN(C)CC1 [Compound I-315],≥ 7.30,≥ 7.30,≥ 7.30,≥ 7.30,≥ 7.30,≥ 7.30,,,,,,
CCc1cc(Nc2nc(Nc3ccc4nccnc4c3N(C)S(C)(=O)=O)c3[nH]ccc3n2)c(OC)cc1N1CCC(N2CCN(C)CC2)CC1 [II-1-20],5.60 to 6.30,5.60 to 6.30,6.30 to 7.30,5.60 to 6.30,6.30 to 7.30,6.30 to 7.30,,,,,,
COc1cc(N2CCC(N3CCN(C)CC3)CC2)c(Cc2ccccc2)cc1Nc1nc(Nc2ccc3nccnc3c2N(C)S(C)(=O)=O)c2occc2n1 [II-1-44],6.30 to 7.30,5.60 to 6.30,5.60 to 6.30,5.60 to 6.30,5.60 to 6.30,5.60 to 6.30,,,,,,

# Second part, the compound after the results:
"pIC50 [1, 7]","pIC50 [2, 8]","pIC50 [3, 9]","pIC50 [4, 10]","pIC50 [5, 11]","pIC50 [6, 12]","pIC50 [1, 13]","pIC50 [2, 14]","pIC50 [3, 15]","pIC50 [4, 16]","pIC50 [5, 17]","pIC50 [6, 18]",SMILES
≥ 7.30,≥ 7.30,≥ 7.30,≥ 7.30,≥ 7.30,≥ 7.30,,,,,,,CCc1cc(Nc2ncc(C(C)C)c(Nc3ccc4nccnc4c3N(C)S(C)(=O)=O)n2)c(OC)cc1N1CCC(N(C)C)CC1 [Compound I-330]
,,,,,,≥ 7.30,≥ 7.30,≥ 7.30,≥ 7.30,≥ 7.30,≥ 7.30,CCc1cc(Nc2ncc(Br)c(Nc3ccc4nccnc4c3N(C)S(=O)(=O)CC)n2)c(OC)cc1N1CCC(N(C)C)CC1 [Compound I-102]
6.30 to 7.30,≥ 7.30,≥ 7.30,≥ 7.30,≥ 7.30,6.30 to 7.30,,,,,,,CCc1cc(Nc2nccc(Nc3ccc4nccnc4c3N(C)S(C)(=O)=O)n2)ccc1N1CCC(N2CCN(C)CC2)CC1 [Compound I-344]
,,,,,,6.30 to 7.30,6.30 to 7.30,6.30 to 7.30,6.30 to 7.30,6.30 to 7.30,≥ 7.30,COc1nc(N2CCC(N3CCN(C)CC3)CC2)ccc1Nc1ncc(Br)c(Nc2ccc3nccnc3c2N(C)S(C)(=O)=O)n1 [Compound I-4]
,,,,,,≥ 7.30,6.30 to 7.30,≥ 7.30,≥ 7.30,6.30 to 7.30,≥ 7.30,COc1cc(N2CCC(N3CCN(C)CC3)CC2)ccc1Nc1ncc(Br)c(Nc2ccc3nccnc3c2N(C2CC2)S(C)(=O)=O)n1 [Compound I-223]
≥ 7.30,6.30 to 7.30,≥ 7.30,≥ 7.30,≥ 7.30,≥ 7.30,,,,,,,CCc1cnc(Nc2cc(F)c(N3CCC(N4CCN(C)CC4)CC3)c(F)c2)nc1Nc1ccc2nccnc2c1N(C)S(C)(=O)=O [Compound I-349]
,,,,,,6.30 to 7.30,5.60 to 6.30,6.30 to 7.30,6.30 to 7.30,5.60 to 6.30,≥ 7.30,C=Cc1cc(Nc2ncc(Br)c(Nc3ccc4nccnc4c3N(C)S(=O)(=O)C(F)(F)F)n2)c(OC(F)(F)F)cc1N1CCC(N2CCN(C)CC2)CC1 [Compound I-258]
,,,,,,6.30 to 7.30,≥ 7.30,≥ 7.30,≥ 7.30,≥ 7.30,≥ 7.30,COc1cc(N2CCN(C)CC2)c(C)cc1Nc1ncc(Cl)c(Nc2ccc3nccnc3c2N(C2CC2)S(C)(=O)=O)n1 [Compound I-244]
,,,,,,≥ 7.30,≥ 7.30,≥ 7.30,≥ 7.30,≥ 7.30,≥ 7.30,COc1cc(N2CCC(N(C)C)CC2)c(C)cc1Nc1ncc(Cl)c(Nc2ccc3nccnc3c2N(C)S(C)(=O)=O)n1 [Compound I-169]
,,,,,,6.30 to 7.30,6.30 to 7.30,≥ 7.30,6.30 to 7.30,≥ 7.30,6.30 to 7.30,CN1CCN(Cc2cccc(Nc3ncc(Br)c(Nc4ccc5nccnc5c4N(C)S(C)(=O)=O)n3)c2)CC1 [Compound I-84]
